Values after ≈ are worked out from the molar mass of the structure shown.
How the values were obtained:
[1] = Solubility of triptophenolide in aqueous solutions with different concentrations of gastrodin and/or water-soluble cyclodextrin; type: physicochemical; conditions: aqueous solution of solubilizer
From the text: Table 1. Solubility of triptophenolide in aqueous solutions with different concentrations of gastrodin and/or water-soluble cyclodextrin

[2] = Dissolving the compound with solubilizer in heated, vacuum-stirred water for injection under nitrogen or argon gas (preparation tank); type: physicochemical; conditions: kept at 80 °C, nitrogen gas
Description: In view of this, the present invention provides a method for dissolving a carbon glycoside compound or a stilbene compound, characterized in that the method comprises the following steps: • heating water for injection to 80-98 °C, followed by stirring under vacuum condition at 30-80 °C, and then adding the carbon glycoside compound or the stilbene compound along with a solubilizer under the protection of nitrogen gas or argon gas to obtain a solution of said compounds; • wherein the solubilizer is one or a mixture of two or more of gastrodin, water-soluble cyclodextrin and ethanol, and wherein the water-soluble cyclodextrin is one or a mixture of two or more of methyl-β-cyclodextrin, thioether-β-cyclodextrin and sulfobutyl ether-β-cyclodextrin; and • wherein the mass ratio of the carbon glycoside compound or the stilbene compound to the solubilizer is 1:1-20.
Disclosed is a method for dissolving a flavonoid compound, a carbon glycoside compound or a stilbene compound, including: • mixing the flavonoid compound, the carbon glycoside compound or the stilbene compound with a solubilizer to obtain a reactant; and • heating water for injection to 80-98 °C, followed by stirring under vacuum conditions at 30-80 °C, and then adding the reactant under the protection of nitrogen gas or argon gas to obtain a solution of the reactant.
Considering the sensitivity to heat or light of the flavonoid compound, the carbon glycoside compound or the stilbene compound, a method is provided by heating water for injection to 80-98 °C to remove dissolved oxygen and other gases in water, which reduces the surface tension of water, increases the contact area of water with the flavonoid compound, the carbon glycoside compound or the stilbene compound, thus increasing the dissolution speed. Meanwhile, pre-heating the water for injection can effectively avoid degradation of the flavonoid compound, the carbon glycoside compound or the stilbene compound due to exposure to the dissolved oxygen, to eliminate unstable factors of the flavonoid compound, the carbon glycoside compound or the stilbene compound. The vacuum conditions can achieve further deoxygenation, facilitating the dissolution of the flavonoid compound, the carbon glycoside compound or the stilbene compound in water. Nitrogen gas or argon gas provides an inert atmosphere, which further reduces the surface tension of the materials, increases the contact area of the flavonoid compound, the carbon glycoside compound or the stilbene compound with water, and increases the dissolution speed.

## OC[C@H]1O[C@@H](Oc2cc(/C=C/c3cc(O)cc(O)c3)ccc2O)[C@H](O)[C@@H](O)[C@@H]1O
[1]; aqueous with cosolvent or surfactant or cyclodextrin, Gastrodin concentration 1 %
  solubility: 3.19 mg/mL (≈ 7.85 mM)
[1]; aqueous with cosolvent or surfactant or cyclodextrin, Gastrodin concentration 3 %
  solubility: 5.1 mg/mL (≈ 12.5 mM)
[1]; aqueous with cosolvent or surfactant or cyclodextrin, Gastrodin concentration 5 %
  solubility: 7.11 mg/mL (≈ 17.5 mM)
[1]; aqueous with cosolvent or surfactant or cyclodextrin, Gastrodin concentration 8 %
  solubility: 9.17 mg/mL (≈ 22.6 mM)
[1]; aqueous with cosolvent or surfactant or cyclodextrin, Gastrodin concentration 10 %
  solubility: 11.4 mg/mL (≈ 28.1 mM)
[1]; aqueous with cosolvent or surfactant or cyclodextrin, Gastrodin concentration 15 %
  solubility: 11.8 mg/mL (≈ 28.9 mM)
[1]; aqueous with cosolvent or surfactant or cyclodextrin, Gastrodin concentration 25 %
  solubility: 38.4 mg/mL (≈ 94.4 mM)
[1]; aqueous with cosolvent or surfactant or cyclodextrin, Gastrodin concentration 30 %
  solubility: 60.4 mg/mL (≈ 149 mM)
[1]; aqueous with cosolvent or surfactant or cyclodextrin, Gastrodin concentration 35 %
  solubility: 87.8 mg/mL (≈ 216 mM)
[1]; aqueous with cosolvent or surfactant or cyclodextrin, Gastrodin concentration 40 %
  solubility: 85.1 mg/mL (≈ 209 mM)
[1]; aqueous with cosolvent or surfactant or cyclodextrin, Gastrodin concentration 45 %
  solubility: 98 mg/mL (≈ 241 mM)
[1]; aqueous with cosolvent or surfactant or cyclodextrin, Gastrodin concentration 50 %
  solubility: 105 mg/mL (≈ 258 mM)
[1]; aqueous with cosolvent or surfactant or cyclodextrin, Hydroxypropyl-β-cyclodextrin concentration 1 %
  solubility: 4.8 mg/mL (≈ 11.8 mM)
[1]; aqueous with cosolvent or surfactant or cyclodextrin, Hydroxypropyl-β-cyclodextrin concentration 3 %
  solubility: 10.8 mg/mL (≈ 26.5 mM)
[1]; aqueous with cosolvent or surfactant or cyclodextrin, Hydroxypropyl-β-cyclodextrin concentration 5 %
  solubility: 20 mg/mL (≈ 49.3 mM)
[1]; aqueous with cosolvent or surfactant or cyclodextrin, Hydroxypropyl-β-cyclodextrin concentration 8 %
  solubility: 26.1 mg/mL (≈ 64.3 mM)
[1]; aqueous with cosolvent or surfactant or cyclodextrin, Hydroxypropyl-β-cyclodextrin concentration 10 %
  solubility: 34.1 mg/mL (≈ 83.9 mM)
[1]; aqueous with cosolvent or surfactant or cyclodextrin, Hydroxypropyl-β-cyclodextrin concentration 15 %
  solubility: 43.3 mg/mL (≈ 106 mM)
[1]; aqueous with cosolvent or surfactant or cyclodextrin, Hydroxypropyl-β-cyclodextrin concentration 20 %
  solubility: 59.2 mg/mL (≈ 146 mM)
[1]; aqueous with cosolvent or surfactant or cyclodextrin, Hydroxypropyl-β-cyclodextrin concentration 25 %
  solubility: 64.3 mg/mL (≈ 158 mM)
[1]; aqueous with cosolvent or surfactant or cyclodextrin, Hydroxypropyl-β-cyclodextrin concentration 30 %
  solubility: 116 mg/mL (≈ 286 mM)
[1]; aqueous with cosolvent or surfactant or cyclodextrin, Hydroxypropyl-β-cyclodextrin concentration 35 %
  solubility: 159 mg/mL (≈ 392 mM)
[1]; aqueous with cosolvent or surfactant or cyclodextrin, Hydroxypropyl-β-cyclodextrin concentration 40 %
  solubility: 189 mg/mL (≈ 464 mM)
[1]; aqueous with cosolvent or surfactant or cyclodextrin, Hydroxypropyl-β-cyclodextrin concentration 45 %
  solubility: 181 mg/mL (≈ 444 mM)
[1]; aqueous with cosolvent or surfactant or cyclodextrin, Hydroxypropyl-β-cyclodextrin concentration 50 %
  solubility: 183 mg/mL (≈ 451 mM)
[1]; aqueous with cosolvent or surfactant or cyclodextrin, Solubilizer concentration: Gastrodin 0 %, Hydroxypropyl-β-cyclodextrin 3 %
  solubility: 10.8 mg/mL (≈ 26.5 mM)
[1]; aqueous with cosolvent or surfactant or cyclodextrin, Solubilizer concentration: Gastrodin 1 %, Hydroxypropyl-β-cyclodextrin 3 %
  solubility: 14.8 mg/mL (≈ 36.4 mM)
[1]; aqueous with cosolvent or surfactant or cyclodextrin, Solubilizer concentration: Gastrodin 3 %, Hydroxypropyl-β-cyclodextrin 3 %
  solubility: 16.2 mg/mL (≈ 39.9 mM)
[1]; aqueous with cosolvent or surfactant or cyclodextrin, Solubilizer concentration: Gastrodin 5 %, Hydroxypropyl-β-cyclodextrin 3 %
  solubility: 22.6 mg/mL (≈ 55.6 mM)
[1]; aqueous with cosolvent or surfactant or cyclodextrin, Solubilizer concentration: Gastrodin 8 %, Hydroxypropyl-β-cyclodextrin 3 %
  solubility: 30.9 mg/mL (≈ 76.1 mM)
[1]; aqueous with cosolvent or surfactant or cyclodextrin, Solubilizer concentration: Gastrodin 10 %, Hydroxypropyl-β-cyclodextrin 3 %
  solubility: 39.8 mg/mL (≈ 98 mM)
[1]; aqueous with cosolvent or surfactant or cyclodextrin, Solubilizer concentration: Gastrodin 15 %, Hydroxypropyl-β-cyclodextrin 3 %
  solubility: 56 mg/mL (≈ 138 mM)
[1]; aqueous with cosolvent or surfactant or cyclodextrin, Solubilizer concentration: Gastrodin 20 %, Hydroxypropyl-β-cyclodextrin 3 %
  solubility: 107 mg/mL (≈ 264 mM)
[1]; aqueous with cosolvent or surfactant or cyclodextrin, Solubilizer concentration: Gastrodin 25 %, Hydroxypropyl-β-cyclodextrin 3 %
  solubility: 127 mg/mL (≈ 312 mM)
[1]; aqueous with cosolvent or surfactant or cyclodextrin, Solubilizer concentration: Gastrodin 30 %, Hydroxypropyl-β-cyclodextrin 3 %
  solubility: 181 mg/mL (≈ 446 mM)
[1]; aqueous with cosolvent or surfactant or cyclodextrin, Solubilizer concentration: Gastrodin 35 %, Hydroxypropyl-β-cyclodextrin 3 %
  solubility: 233 mg/mL (≈ 574 mM)
[1]; aqueous with cosolvent or surfactant or cyclodextrin, Solubilizer concentration: Gastrodin 40 %, Hydroxypropyl-β-cyclodextrin 3 %
  solubility: 197 mg/mL (≈ 485 mM)
[1]; aqueous with cosolvent or surfactant or cyclodextrin, Solubilizer concentration: Gastrodin 45 %, Hydroxypropyl-β-cyclodextrin 3 %
  solubility: 187 mg/mL (≈ 460 mM)
[1]; aqueous with cosolvent or surfactant or cyclodextrin, Solubilizer concentration: Gastrodin 50 %, Hydroxypropyl-β-cyclodextrin 3 %
  solubility: 188 mg/mL (≈ 463 mM)
[1]; water, Gastrodin concentration 0 %
  solubility: 1.75 mg/mL (≈ 4.31 mM)
[1]; water, Hydroxypropyl-β-cyclodextrin concentration 0 %
  solubility: 1.75 mg/mL (≈ 4.31 mM)
[2]; Example 35: 5 g with Gastrodin 80 g in 1000 ml, water heated to 95 °C, vacuum stirring 10 minutes
  dissolved in (time): about 5 minutes
[2]; Example 36: 20 g with Gastrodin 200 g in 1000 ml, water heated to 95 °C, vacuum stirring 10 minutes
  dissolved in (time): about 5 minutes
[2]; Example 37: 10 g with Gastrodin 80 g in 1000 ml, water heated to 95 °C, vacuum stirring 10 minutes
  dissolved in (time): about 5 minutes
[2]; Example 38: 25 g with Gastrodin 80 g, Hydroxypropyl-β-cyclodextrin 30 g in 1000 ml, water heated to 95 °C, vacuum stirring 10 minutes
  dissolved in (time): about 5 minutes
[2]; Example 47: 5 g with Methyl-β-cyclodextrin 30 g in 1000 ml, water heated to 88 °C, vacuum stirring 40 minutes
  dissolved in (time): about 5 minutes
[2]; Example 51: 10 g with Methyl-β-cyclodextrin 30 g in 1000 ml, water heated to 95 °C, vacuum stirring 10 minutes
  dissolved in (time): about 5 minutes
[2]; Example 52: 10 g with Thioether-β-cyclodextrin 30 g in 1000 ml, water heated to 95 °C, vacuum stirring 10 minutes
  dissolved in (time): about 5 minutes
[2]; Example 55: 10 g with Methyl-β-cyclodextrin 50 g in 1000 ml, water heated to 95 °C, vacuum stirring 10 minutes
  dissolved in (time): about 5 minutes
[2]; Example 58: 20 g with Hydroxypropyl-β-cyclodextrin 50 g in 1000 ml, water heated to 95 °C, vacuum stirring 10 minutes
  dissolved in (time): about 5 minutes
[2]; Example 59: 20 g with Methyl-β-cyclodextrin 50 g in 1000 ml, water heated to 95 °C, vacuum stirring 10 minutes
  dissolved in (time): about 5 minutes
[2]; Example 61: 20 g with Sulfobutyl ether-β-cyclodextrin 50 g in 1000 ml, water heated to 95 °C, vacuum stirring 10 minutes
  dissolved in (time): about 5 minutes
[2]; Example 63: 5 g with Gastrodin 100 g in 1000 ml, water heated to 95 °C, vacuum stirring 10 minutes
  dissolved in (time): about 5 minutes
[2]; Example 65: 5 g with Gastrodin 100 g in 1000 ml, water heated to 95 °C, vacuum stirring 10 minutes
  dissolved in (time): about 5 minutes
[2]; Example 68: 50 g with Hydroxypropyl-β-cyclodextrin 80 g in 1000 ml, water heated to 95 °C, vacuum stirring 10 minutes
  dissolved in (time): about 5 minutes
[2]; Example 69: 50 g with Methyl-β-cyclodextrin 80 g in 1000 ml, water heated to 95 °C, vacuum stirring 10 minutes
  dissolved in (time): about 5 minutes
[2]; Example 70: 50 g with Thioether-β-cyclodextrin 80 g in 1000 ml, water heated to 95 °C, vacuum stirring 10 minutes
  dissolved in (time): about 5 minutes
[2]; Example 71: 50 g with Sulfobutyl ether-β-cyclodextrin 80 g (formula; text: hydroxypropyl-β-cyclodextrin) in 1000 ml, water heated to 95 °C, vacuum stirring 10 minutes
  dissolved in (time): about 5 minutes
[2]; Example 72: 50 g with Hydroxypropyl-β-cyclodextrin 80 g in 1000 ml, water heated to 95 °C, vacuum stirring 10 minutes
  dissolved in (time): about 5 minutes
[2]; Example 73: 50 g with Hydroxypropyl-β-cyclodextrin 80 g in 1000 ml, water heated to 95 °C, vacuum stirring 10 minutes
  dissolved in (time): about 5 minutes
[2]; Example 74: 5 g with Gastrodin 0.5 g in 1000 ml, water heated to 95 °C, vacuum stirring 10 minutes
  dissolved in (time): about 5 minutes
[2]; Example 80: 10 g with Hydroxypropyl-β-cyclodextrin 30 g in 1000 ml, water heated to 95 °C, vacuum stirring 10 minutes
  dissolved in (time): about 5 minutes
